From ChEMBL document CHEMBL1201862, “PubChem BioAssay data set” (2004)
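Assay format: 96-well plates, 48-hour exposure. GI50 = concentration required for 50% inhibition of growth.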 Active and inactive are the calls of the source. Rule as the data show it: active = GI50 up to about 1.1 µM and inactive = higher.

Key:
Assay in all cases: growth of human tumour cells (NCI), 48 h
[1] = system: SNB-78
[2] = system: LXFL 529
[3] = system: M19-MEL
[4] = system: DMS-273
[5] = system: DMS-114
[6] = system: DLD-1
[7] = system: XF498
[8] = system: HOP-18
[9] = system: RXF 631

Measured: GI50

NCCCOCC(=O)O
inactive: [1] > 100 µM | [2] > 100 µM | [3] > 100 µM | [4] > 100 µM | [5] > 100 µM

CC(C)(CN1CCCCC1)C(=O)CC(SCCS(=O)(=O)O)c1ccc(Br)cc1 (centres undefined)
inactive: [6] 1.67 µM | [1] 4.46 µM | [2] 1.24 µM | [3] 1.66 µM | [4] 1.65 µM | [5] 1.75 µM
active: [7] 0.562 µM | [8] 0.832 µM

O=C(Nc1cccc(C(F)(F)F)c1)C(=O)C(C(=O)c1ccc2ccccc2c1)C1OC(=O)c2ccccc21 (centres undefined)
inactive: [6] 6.35 µM | [1] 7.45 µM | [2] 4.82 µM | [3] 8.51 µM | [4] 6.3 µM | [5] 6.89 µM
active: [7] 0.887 µM

c1cnc2c(c1)-n1cccc1C1(CCCCC1)NN2
inactive: [7] 74.3 µM | [4] 46.5 µM | [8] 8.18 µM | [5] 53.1 µM

CC(=O)OC1(C(C)=O)CC2(c3ccccc3)OC1(c1ccccc1)c1ccccc12 (centres undefined)
inactive: [6] 8.34 µM | [7] 5.51 µM | [1] 31.7 µM | [2] 7.53 µM | [3] 9.77 µM | [4] 5.08 µM | [9] 16.9 µM | [8] 42.5 µM | [5] 3.21 µM

CCOC(=O)c1sc2c(sc(=O)n2-c2ccccc2)c1O
inactive: [6] 46.3 µM | [7] > 100 µM | [1] > 100 µM | [2] > 100 µM | [3] > 100 µM | [4] 29.4 µM | [9] 58.6 µM | [8] > 100 µM | [5] 98.9 µM

O=C(CCN1CCC(CCO)CC1)Nc1ccc2c(c1)C(=O)c1ccc(NC(=O)CCN3CCC(CCO)CC3)cc1C2=O
inactive: [6] 10.4 µM | [1] 3.43 µM | [2] 5.25 µM | [3] 97.5 µM | [4] 6.81 µM | [8] 25.5 µM | [5] 6.53 µM

O=C1/C(=C(\Nc2ccccc2)c2ccccc2)C=NN1c1ccccc1
inactive: [6] > 100 µM | [7] > 100 µM | [1] > 100 µM | [2] > 100 µM | [4] 61.8 µM | [9] > 100 µM | [5] 50.6 µM
active: [8] < 0.01 µM

COC(=O)C(=O)C(C(=O)C=C(C)C)C(=O)C(=O)Nc1nc2ccc([N+](=O)[O-])cc2s1 (centres undefined)
inactive: [6] 51.8 µM | [1] 58.2 µM | [2] 83.4 µM | [3] > 100 µM | [4] 47.6 µM | [8] 4.51 µM | [5] 31.4 µM

CC(=O)Nc1ccc(/C=C/C(=O)c2sc(C(N)=S)nc2C)cc1
inactive: [6] > 100 µM | [1] > 100 µM | [3] > 100 µM | [4] > 100 µM | [8] > 100 µM | [5] > 100 µM

CN(C)CCNC(=O)c1cccc2ccc(-c3ccc(O)cc3)nc12
active: [4] 0.743 µM
inactive: [6] 2.47 µM | [1] 4.43 µM | [3] 1.9 µM | [8] 2.81 µM | [5] 2.08 µM

COc1cc2c(c(OC)c1O)-c1ccc(SC)c(=O)cc1C(NC(C)=O)CC2 (centres undefined)
active: [6] 0.0597 µM | [1] < 0.01 µM | [2] < 0.01 µM | [3] < 0.01 µM | [4] < 0.01 µM | [5] < 0.01 µM

Cc1ccc(-c2cc(-c3ccco3)c(C#N)c(O)n2)cc1
inactive: [6] > 100 µM | [1] > 100 µM | [2] > 100 µM | [3] > 100 µM | [4] > 100 µM | [8] 13.3 µM

Nc1c(-c2ccc(Cl)cc2Cl)[n+]([O-])c2ccccc2[n+]1[O-]
inactive: [6] > 100 µM | [7] > 100 µM | [1] > 100 µM | [2] > 100 µM | [3] > 100 µM | [4] > 100 µM | [9] > 100 µM | [8] 76 µM | [5] > 100 µM

FC(F)(F)c1cccc(/C=N/C23CC4CC(CC(C4)C2)C3)c1
inactive: [7] > 100 µM | [1] > 100 µM | [3] 27.5 µM | [4] > 100 µM | [5] > 100 µM

O=C(O)[C@@H](NS(=O)(=O)c1ccc2ccccc2c1)c1ccccc1
inactive: [6] > 100 µM | [7] 75.5 µM | [2] > 100 µM | [3] > 100 µM | [4] > 100 µM | [9] > 100 µM | [8] > 100 µM

O=C1/C(=C/c2ccc3c(c2)OCO3)SC2C=Nc3ccccc3N12 (centres undefined)
inactive: [6] > 100 µM | [7] > 100 µM | [1] 92.9 µM | [2] > 100 µM | [3] > 100 µM | [4] > 100 µM | [9] > 100 µM | [8] > 100 µM | [5] 93.5 µM

OCC(O)COc1c(Cl)ccc(Cl)c1Cl (centres undefined)
inactive: [6] > 100 µM | [7] > 100 µM | [1] > 100 µM | [2] > 100 µM | [3] > 100 µM | [4] > 100 µM | [8] > 100 µM | [5] > 100 µM

C=CCNC(=O)NCCCC(NC(C)=O)C(=O)NCc1ccccc1 (centres undefined)
inactive: [7] > 100 µM | [2] > 100 µM | [3] > 100 µM | [4] > 100 µM | [9] > 100 µM | [8] > 100 µM

CN1CCC23c4c5ccc(O)c4OC2C(=NN=C2CCC4(O)C6Cc7ccc(O)c8c7C4(CCN6C)C2O8)CCC3(O)C1C5 (centres undefined)
inactive: [6] > 100 µM | [7] > 100 µM | [2] > 100 µM | [3] > 100 µM | [4] > 100 µM | [9] > 100 µM | [8] > 100 µM | [5] > 100 µM

CN1C(=O)N(C)C2(O)c3ccccc3C(=O)C12O (centres undefined)
inactive: [6] > 100 µM | [1] > 100 µM | [2] > 100 µM | [3] > 100 µM | [4] > 100 µM | [9] > 100 µM | [8] > 100 µM | [5] > 100 µM

Cc1ccc(S(=O)(=O)c2c(N)n(CCN(C)C)c3nc4ccccc4nc23)cc1
inactive: [6] > 100 µM | [7] > 100 µM | [1] > 100 µM | [2] > 100 µM | [3] > 100 µM | [4] > 100 µM | [8] > 100 µM | [5] > 100 µM

COC(=O)C(CCC#N)(CCC#N)C(=O)OC
inactive: [7] > 100 µM | [2] > 100 µM | [3] > 100 µM | [4] > 100 µM | [5] > 100 µM

C[C@@H]1[C@@H]2[C@@H](C=C3C4CCC5Cc6nc7c(nc6C[C@@]5(C)C4C[C@H](O)[C@]32CO)CC2CCC3C4=C[C@H]5O[C@@]6(OC(C)(CO)C[C@@H]6O)[C@H](C)[C@@]5(O)[C@]4(C)[C@@H](O)CC3[C@]2(C)C7)O[C@]12CCC(C)(C)O2 (some centres undefined)
active: [6] 0.822 µM | [7] 0.00507 µM | [1] 0.00486 µM | [2] 0.0118 µM | [3] 0.966 µM | [4] 0.000826 µM | [8] 0.401 µM

Cc1cc2c(s1)C(=O)c1sccc1C2=O
inactive: [6] 1.64 µM | [7] 1.55 µM | [2] 1.19 µM | [4] 1.24 µM | [8] 1.48 µM

OCCCNc1ccnc2cc(Cl)ccc12
inactive: [6] > 100 µM | [7] > 100 µM | [1] > 100 µM | [2] > 100 µM | [3] > 100 µM | [8] > 100 µM | [5] > 100 µM

CC(C)c1cccc(C(C)C)c1/N=C(/N)C#N
inactive: [6] 37 µM | [7] > 100 µM | [1] 99.1 µM | [2] > 67.1 µM | [3] > 60 µM | [4] > 43 µM | [9] > 100 µM | [8] > 86.1 µM | [5] 29.9 µM
